Test results published in patent US20040087842A1, “Fluorescent probes for saccharrides” (priority 2002, published 2004).
Read-outs that look alike come from different tables or passages of the source.

Experiments:
[1] = DSTBA, from reference 3; read-out: KD fructose; cited from earlier work
[2] = Fluorescence titration curves against sugar (dissociation constant), D-fructose; format: binding
Procedure: (§1) Stilbene-4-boronic acid (STBA), 4′-cyanostilbene-4-boronic acid (CSTBA), 4′-methoxystilbene-4-boronic acid (MSTBA) and 4′-(dimethylamino)stilbene-4-boronic acid (DSTBA) were synthesized by the Wittig reaction between the para-substituted benzaldehydes and the para-boronic acid derivative of the benzyltriphenylphosphonium bromide. This latter was synthesized by the reaction of the p-bromomethylphenylboronic acid with triphenylphosphine in toluene. […] Absorption spectrawere recorded with a Cary 50 UV-Vis spectrophotometer from Varian. Emission spectra were recorded with a Varian Eclipse spectrofluorometer from Varian. In both cases, the measurements were taken at room temperature in a 1 cm quartz cuvette. For all measurements, the absorbances of the solutions were about 0.1 corresponding to a concentration range of 2-3×10^−6 M of the fluorophore. Fluorescence quantum yields were measured against p-quaterphenyl in cyclohexane (ΦF=0.89) for trans-stilbene (ST) and STBA, anthracene in cyclohexane (φF=0.36) for CSTBA and MSTBA and Quinine sulfate in 1N sulfuric acid (ΦF=0.577) for DSTBA.
(§2) where Iacid and Ibase are the intensity limits in the acid and basic region, respectively. Titration curves against sugar were fitted and dissociation constant (KD) values were obtained using the equation: [formula]
(§3) where Io and If are the initial (no sugar) and final (plateau) intensities of the titration curves. All solutions in water and buffer contained also 33.3% […] methanol to avoid any problem due to the aggregation.

[3] = DSTBA, from reference 3; read-out: KD glucose; cited from earlier work
[4] = Fluorescence titration curves against sugar (dissociation constant), D-galactose; format: binding
Procedure: as §1, §2, §3

[5] = Titration curves against pH (pKa of the boronic acid group) with and without sugar; format: physicochemical; details: for pKa: aqueous buffer solutions with methanol
Procedure: Titration curves against pH were measured in buffer solutions: acetate buffer for pH 4.0-5.5, phosphate buffer for pH 6.0-9.0 and carbonate buffer for pH 10,0-11.0. Titration curves were fitted and pKa (pKa=−log Ka) values were obtained using the equation: [formula]
as §2
(§4) where Io and If are the initial (no sugar) and final (plateau) intensities of the titration curves. […]

[6] = Fluorescence titration curves against sugar (dissociation constant), D-glucose; format: binding
Procedure: as §1, §2, §4

[7] = DSTBA, from reference 3; read-out: KD galactose; cited from earlier work
[8] = Yoon et al., cited from earlier work
[9] = cited from earlier work; for decrease of emission intensity after addition of glucose: pH 7.4, literature
[10] = cited from earlier work
[11] = Stability and dissociation constants of 7 and 8 for D-glucose from steady-state and frequency-domain fluorescence; format: binding; details: 1:1 complex with D-glucose, methanol/phosphate buffer pH 7.7 (1:3)
From the text: (§5) As discussed in the literature, the change is the intensity is attributed to the removal of the PET quenching due to the interaction between the boron and nitrogen atoms following the binding with glucose. In attempt to see the possible interference from macrobiosystems, titration curves have also been measured in presence of BSA and two detergents, one with a […] charged head group (HDTBr) and the other with a […] charged head group (SDS). BSA has a little effect on the titration curve of 7 and no effect for compound 8. The effect of BSA one compound 7 could be the result of an interaction between these two compounds. But, as the measurements are taken in a mixture of methanol and water, aggregation could not be neglect. […] To obtain a reproducible titration curve, vigorous stirring and time must be applied. In the presence of micelles, a complete inhibition of the intensity change is observed. […] For compound, the dissociation constant is in the millimolar range which is characteristic with the boronic acid group. For compound 8, this dissociation constant goes down to submillimolar range. This is due to the ability of both boronic acid group present on compound 8 to bind one molecule of glucose.
Titration curves obtain with the mean lifetime and with the phase angle and modulation are shown in FIGS. 24 and 25 respectively for both compounds. […] This is due to the fact that the short lifetime component becomes less important and gradually the decay become more monoexponential with the addition of glucose. For compound 8, the combination of larger mean lifetime change and decrease of the short lifetime component result in a larger change in the phase angle and modulation with the presence of glucose. The apparent association constants obtained with the mean lifetime, phase angle and modulation show a decrease of an order in comparison with the KD obtained with the steady-state intensity change. […] This is due to the more important contribution of the complex (probe with analyte) on the lifetime because of the higher quantum yield and longer lifetime of the latter.
Steady-state fluorescence measurements were performed in 1 cm quartz cuvette in an ISS spectrofluorometer.
Frequency-domain (FD) measurements were performed using instrumentation described previously (65). The Domain (TD measurements can also be applied to the fluorescent compounds and methods of the present invention, as readily recognized by those of ordinary skill in the art. For Example 4, an amplitude modulated UV-LED was use as light source given and peak intensity centered around 370 nm. Emission was observed through a 415 nm cut-off and a 420 nm interference filter. The FD or TD intensity decay data were analyzed by nonlinear least squares in terms of the multiexponential model: [formula]
The values of (τ) are thought to be proportional to the quantum yield of the sample. […] Stability and association constants are determined according to the method described in the literature.

[12] = Solubility observation during titrations; format: physicochemical; details: methanol/water mixture
From the text: as §5

[13] = literature value; read-out: KD D-galactose; cited from earlier work
[14] = Emission intensity change of STBA after addition of sugars; details: phosphate buffer pH 8.0/methanol 2:1 (v/v), λex=310 nm
From the text: A decrease of the fluorescence emission is observed after the addition of sugar. The overall decrease is relatively weak, about 15%. Since the same intensity change is observed by increasing the pH, this change is attributed to the formation of the anionic form of the boronic acid group. […] The decrease of this pKa for the complex with sugar is also a general observation for this chelator group. […] At pH 8.0, STBA is present mostly in its neutral form. After the addition of sugar, the complex exists under the anionic form due to its lower pKa. This change from the neutral to the anionic form is at the origin of the intensity changes observed for STBA and the other complexes presented in this study. […]
Stilbene-4-boronic acid (STBA), 4′-cyanostilbene-4-boronic acid (CSTBA), 4′-methoxystilbene-4-boronic acid (MSTBA) and 4′-(dimethylamino)stilbene-4-boronic acid (DSTBA) were synthesized by the Wittig reaction between the para-substituted benzaldehydes and the para-boronic acid derivative of the benzyltriphenylphosphonium bromide. […] Absorption spectrawere recorded with a Cary 50 UV-Vis spectrophotometer from Varian. Emission spectra were recorded with a Varian Eclipse spectrofluorometer from Varian. […] For all measurements, the absorbances of the solutions were about 0.1 corresponding to a concentration range of 2-3×10^−6 M of the fluorophore. […]

[15] = Fluorescence titration curves against sugar (dissociation constant), D-fructose; format: binding; details: compounds 4 and 5; phosphate buffer pH 8.0/methanol 1:2 (v/v)
[16] = stilbenes, pH 8.0, 33.3% methanol, read-out: KD D-fructose
[17] = stilbenes, pH 8.0, 33.3% methanol, read-out: KD D-galactose
[18] = stilbenes, 33.3% methanol, 50 mM D-fructose, read-out: pKa +D-fructose (50 mM)
[19] = stilbenes, 33.3% methanol, 50 mM D-glucose, read-out: pKa +D-glucose (50 mM)
[20] = stilbenes, solution contained 33.3% methanol, no sugar, read-out: pKa Alone
[21] = stilbenes, pH 8.0, 33.3% methanol, read-out: KD D-glucose
[22] = 30 MHz, read-out: KD, Modulation
[23] = 30 MHz, read-out: KD, Phase Angle
[24] = read-out: KD, Steady State Intensity
[25] = compounds 4 and 5, phosphate buffer pH 8.0/methanol 1:2 (v/v), read-out: KD galactose
[26] = compounds 4 and 5, 66.6% methanol, 50 mM fructose, read-out: pKa fructose (50 mM)
[27] = compounds 4 and 5, 66.6% methanol, 170 mM glucose, read-out: pKa glucose (170 mM)
[28] = compounds 4 and 5, buffer with 66.6% (v/v) methanol, read-out: pKa no sugar
[29] = compounds 4 and 5, phosphate buffer pH 8.0/methanol 1:2 (v/v), read-out: KD glucose
[30] = compound 6, pH 7.0, phosphate buffer/methanol 2:1

For CN(C)c1ccc(/C=C/c2ccc(B(O)O)cc2)cc1 [DSTBA, 4′-(dimethylamino)stilbene-4-boronic acid], the Kd [1] is given as 2.5 mM, the Kd [2, 16] is given as 2.5 mM and the Kd [3] is given as 98 mM. For the same molecule, the Kd [4, 17] was 49 mM, the pKa [5, 18] was 6.61 and the pKa [5, 19] was 8.34. For the same molecule, the pKa [5, 20] was 9.14, the Kd [6, 21] was 98 mM and the Kd [7] was 49 mM.

With COc1ccc(/C=C/c2ccc(B(O)O)cc2)cc1 [MSTBA, 4′-methoxystilbene-4-boronic acid] the Kd [2, 16] was 1 mM, the Kd [4, 17] was 26 mM and the pKa [5, 18] was 6.36. For the same molecule, the pKa [5, 19] was 7.88, the pKa [5, 20] was 8.58 and the Kd [6, 21] was 43 mM.

In the case of OB(O)c1ccc2cc3ccccc3cc2c1 [anthrylboronic acid, anthryl-2-boronic acid], the “pKa of complex with fructose” value ([8]; saturated fructose solution) is given as 5.9, the pKa ([8]; uncomplexed) is given as 8.8 and the “decrease of emission intensity after addition of glucose” value [9] is given as “about 10%”. The “decrease of emission intensity after addition of glucose” value ([9]; listed as anthryl-2-boronic acid) was 10% and the “decrease of emission intensity after addition of fructose” value ([10]; pH 7.4, literature) was 30%.

N#Cc1ccc(/C=C/c2ccc(B(O)O)cc2)cc1 [CSTBA, 4′-cyanostilbene-4-boronic acid] showed a Kd ([2]; pH 7.0, read-out: dissociation constant for D-fructose) of 3.22 mM, a Kd ([2]; pH 7.5, read-out: dissociation constant for D-fructose) of 1.19 mM and a Kd [2, 16] of 0.65 mM. For the same molecule, the Kd [4, 17] was 12.5 mM, the pKa [5, 18] was 5.84 and the pKa [5, 19] was 7.3. It also gave a pKa [5, 20] of 8.17 and a Kd [6, 21] of 18.3 mM.

In the case of CN(Cc1ccccc1B(O)O)Cc1c2ccccc2c(CN(C)Cc2ccccc2B(O)O)c2ccccc12 [compound 8, 9,10-Bis[[N-methyl-N-(o-boronobenzyl)amino]methyl]anthracene], the “Log KS, Mean Lifetime” value [11] is reported as 4.4 (0.992:11), the “Log KS, Steady State Intensity” value [11] is reported as 3.1 (0.998:12) and the “Log KS, Modulation” value ([11]; 30 MHz) is reported as 4.1 (0.995:7). The “Log KS, Phase Angle” value ([11]; 30 MHz) was 4.5 (0.996:10), the Kd [11, 22] was 0.079 mM and the Kd [11, 23] was 0.032 mM. For the same molecule, the Kd ([11]; read-out: KD, Mean Lifetime) was 0.04 mM, the Kd [11, 24] was 0.79 mM and the solubility [12] was “relatively low solubility”.

In the case of OB(O)c1ccccc1 [phenylboronic acid], the Kd ([9]; literature value, read-out: KD D-glucose) is given as 9.1 mM, the Kd [13] is given as 3.6 mM and the Kd ([10]; literature value, read-out: KD D-fructose) is given as 0.2 mM.

For OB(O)c1ccc(/C=C/c2ccccc2)cc1 [STBA, stilbene-4-boronic acid], the Kd [2, 16] was 3.4 mM, the “overall decrease of the fluorescence emission after addition of sugar” value [14] was “about 15%” and the Kd [4, 17] was 6 mM. The pKa [5, 18] was 6.4, the pKa [5, 19] was 7.63 and the pKa [5, 20] was 8.86. For the same molecule, the Kd [6, 21] was 11 mM.

For CN(Cc1ccccc1B(O)O)Cc1c2ccccc2cc2ccccc12 [compound 7, 9-[[N-Methyl-N-(o-boronobenzyl)amino]methyl]anthracene], the “Log KS, Mean Lifetime” value [11] was 2.5 (0.994:4), the “Log KS, Steady State Intensity” value [11] was 1.7 (0.993:7) and the “Log KS, Modulation” value ([11]; 30 MHz) was 2.5 (0.999:6). The “Log KS, Phase Angle” value ([11]; 30 MHz) was 2.2 (0.993:5), the Kd [11, 22] was 3.4 mM and the Kd [11, 23] was 6.1 mM. The Kd ([11]; read-out: KD, Mean Lifetime) was 3.2 mM, the Kd [11, 24] was 19.3 mM and the solubility [12] was “relatively low solubility”.

Molecule CN(C)c1ccc(/C=C/C=C/c2ccc(B(O)O)cc2)cc1 [compound 4, 1-(p-Dimethylaminophenyl)-4-(p-boronophenyl)-buta-1,3-diene] has a Kd [15] of 1.12 ± 0.05 mM, a Kd [4, 25] of 5.9 ± 0.6 mM and a pKa [5, 26] of 6.19 ± 0.04. The pKa [5, 27] was 6.97 ± 0.02, the pKa [5, 28] was 8.9 and the Kd [6, 29] was 17 ± 2 mM.

For CN(C)c1ccc(-c2cnc(-c3ccc(B(O)O)cc3)o2)cc1 [compound 6, 5-(4′-Dimethylaminophenyl)-2-(4″-boronophenyl)oxazol], the “increase of the emission intensity in presence of fructose” value [2, 30] was “about 5 fold”, the Kd ([2]; compound 6, phosphate buffer/methanol (2:1 v/v) at pH 7.0, read-out: Dissociation constant (KD) for fructose) was 1.9 ± 0.1 mM and the “increase of the emission intensity in presence of galactose” value [4, 30] was “about 3 fold”. The Kd ([4]; compound 6, phosphate buffer/methanol (2:1 v/v) at pH 7.0, read-out: Dissociation constant (KD) for galactose) was 14 ± 1 mM, the “pKa in presence of fructose” value ([5]; compound 6) was 5.6 and the “pKa in presence of glucose” value ([5]; compound 6) was 6.5. The “pKa in absence of sugar” value ([5]; compound 6, λex=350 nm) was 7.8, the “increase of the emission intensity in presence of glucose” value [6, 30] was “about 3 fold” and the Kd ([6]; compound 6, phosphate buffer/methanol (2:1 v/v) at pH 7.0, read-out: Dissociation constant (KD) for glucose) was 37 ± 3 mM.

In the case of CN(C)c1ccc(/C=C/C=C/C=C/c2ccc(B(O)O)cc2)cc1 [compound 5, 1-(p-dimethylaminophenyl)-6-(p-boronophenyl)-hexa-1,3,5-triene], the Kd [15] is reported as 0.84 ± 0.03 mM, the Kd [4, 25] is reported as 5.4 ± 0.4 mM and the pKa [5, 26] is reported as 6.1 ± 0.05. For the same molecule, the pKa [5, 27] was 6.86 ± 0.02, the pKa [5, 28] was 8.75 and the Kd [6, 29] was 15 ± 1 mM.
